Values quoted from earlier work as cited in patent US11752185B2, “Powderized cannabis oil” (Hemp Synergistics, priority 2020, dated 2023).

Settings: clinical studies; EPIDIOLEX context: seizures associated with Lennox-Gastaut syndrome or Dravet syndrome

With `C=C(C)[C@@H]1CCC(C)=C[C@H]1c1c(O)cc(CCCCC)cc1O` [CBD, cannabidiol] as the compound, how does the therapeutic dose read?
Its therapeutic dose is 10 mg/kg/day.
